Data reported in PubChem BioAssay (NCI).
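Cultured in 96-well plates, cells were exposed to test compound for 48 hours across five concentrations. Here, GI50 denotes the concentration required for 50% inhibition of growth. TGI denotes the concentration required for complete inhibition of growth.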

Legend:
Assay in all cases: growth of human tumour cells (NCI), 48 h; in the data active means GI50 below about 0.43 µM; inactive means the rest
ACHN renal = tested on: ACHN renal
CCRF-CEM leukemia = tested on: CCRF-CEM leukemia
COLO 205 colon = tested on: COLO 205 colon
HCC-2998 colon = tested on: HCC-2998 colon
M14 melanoma = tested on: M14 melanoma
NCI-H226 lung = tested on: NCI-H226 lung
OVCAR-8 ovarian = tested on: OVCAR-8 ovarian
SN12C renal = tested on: SN12C renal
OVCAR-4 ovarian = tested on: OVCAR-4 ovarian

CC(C)N1C(C)[C@@H](c2ccccc2)O[P@@]1(=O)CC1=CCCCC1 (some centres undefined)
> 100 µM: TGI (ACHN renal) | TGI (CCRF-CEM leukemia) | TGI (COLO 205 colon) | TGI (HCC-2998 colon) | TGI (M14 melanoma) | TGI (NCI-H226 lung) | TGI (OVCAR-8 ovarian) | TGI (SN12C renal)

COC(=O)C(=O)C(C(C)=O)C(=O)NCc1ccccc1 (centres undefined)
> 100 µM: TGI (ACHN renal) | TGI (CCRF-CEM leukemia) | TGI (COLO 205 colon) | TGI (HCC-2998 colon) | TGI (M14 melanoma) | TGI (NCI-H226 lung) | TGI (OVCAR-4 ovarian) | TGI (OVCAR-8 ovarian) | TGI (SN12C renal)

COc1cc([C@@H]2OC(=O)C3C2C(=O)O[C@H]3c2ccc(O)c(OC)c2)ccc1O (some centres undefined)
> 100 µM: TGI (ACHN renal) | TGI (CCRF-CEM leukemia) | TGI (COLO 205 colon) | TGI (HCC-2998 colon) | TGI (M14 melanoma) | TGI (NCI-H226 lung) | TGI (OVCAR-4 ovarian) | TGI (OVCAR-8 ovarian) | TGI (SN12C renal)

COc1ccc2c(CCCc3ccc(Cl)cc3Cl)c3[n+](cc2c1OC)CCc1cc2c(cc1-3)OCO2
active: GI50 (OVCAR-4 ovarian) 0.337 µM
1.88 µM: TGI (M14 melanoma)
3.15 µM: TGI (ACHN renal)
inactive: GI50 (ACHN renal) 1.44 µM | GI50 (HCC-2998 colon) 0.638 µM | GI50 (M14 melanoma) 0.485 µM
1.59 µM: TGI (OVCAR-4 ovarian)
1.95 µM: TGI (HCC-2998 colon)

O=C1CC(Cc2n[nH]c3c2CCCC3)CC(=O)N1
> 100 µM: TGI (CCRF-CEM leukemia) | TGI (COLO 205 colon) | TGI (HCC-2998 colon) | TGI (M14 melanoma) | TGI (NCI-H226 lung) | TGI (OVCAR-4 ovarian) | TGI (OVCAR-8 ovarian) | TGI (SN12C renal)

CC(=O)[CH-]C(=O)c1ccccc1.CC(=O)[CH-]C(=O)c1ccccc1.CC[C@H](/C=C/C(C)[C@H]1CCC2[C@@H]3CC=C4C[C@@H]([O-])CC[C@]4(C)C3CC[C@@]21C)C(C)C.CC[C@H](/C=C/C(C)[C@H]1CCC2[C@@H]3CC=C4C[C@@H]([O-])CC[C@]4(C)C3CC[C@@]21C)C(C)C.Cl.[Ti+4] (some centres undefined)
inactive: GI50 (ACHN renal) > 25 µM | GI50 (CCRF-CEM leukemia) > 25 µM | GI50 (COLO 205 colon) > 25 µM | GI50 (HCC-2998 colon) > 25 µM | GI50 (M14 melanoma) > 25 µM | GI50 (NCI-H226 lung) > 25 µM | GI50 (OVCAR-4 ovarian) > 25 µM | GI50 (OVCAR-8 ovarian) > 25 µM | GI50 (SN12C renal) > 25 µM
> 25 µM: TGI (ACHN renal) | TGI (CCRF-CEM leukemia) | TGI (COLO 205 colon) | TGI (HCC-2998 colon) | TGI (M14 melanoma) | TGI (NCI-H226 lung) | TGI (OVCAR-4 ovarian) | TGI (OVCAR-8 ovarian) | TGI (SN12C renal)

CCOC(=O)C(=O)Nc1c(C)cccc1C(C)(C)C
> 100 µM: TGI (ACHN renal) | TGI (COLO 205 colon) | TGI (HCC-2998 colon) | TGI (M14 melanoma) | TGI (NCI-H226 lung) | TGI (OVCAR-4 ovarian) | TGI (OVCAR-8 ovarian) | TGI (SN12C renal)

NC(=O)C(=O)C1C(=O)N(c2ccccc2)N=C1N (centres undefined)
> 100 µM: TGI (ACHN renal) | TGI (COLO 205 colon) | TGI (HCC-2998 colon) | TGI (M14 melanoma) | TGI (NCI-H226 lung) | TGI (OVCAR-4 ovarian) | TGI (OVCAR-8 ovarian) | TGI (SN12C renal)

Cc1ccc(C2[C@H]3C(=O)N(c4ccc(Cc5ccc(N6C(=O)[C@@H]7ON(c8ccccc8)C(c8ccc(C)cc8)[C@@H]7C6=O)cc5)cc4)C(=O)[C@H]3ON2c2ccccc2)cc1 (some centres undefined)
> 100 µM: TGI (ACHN renal) | TGI (CCRF-CEM leukemia) | TGI (COLO 205 colon) | TGI (HCC-2998 colon) | TGI (M14 melanoma) | TGI (NCI-H226 lung) | TGI (OVCAR-4 ovarian) | TGI (SN12C renal)

C=C(C)C1CCC2=CC(CC3(C)OC3C3=CC(C(=O)OC)=C(C1)O3)OC2=O (centres undefined)
> 100 µM: TGI (ACHN renal) | TGI (CCRF-CEM leukemia) | TGI (M14 melanoma) | TGI (NCI-H226 lung) | TGI (OVCAR-8 ovarian) | TGI (SN12C renal)

Cc1cc(-c2nc3n(c2/C=N/N=C(N)N)CCS3)c(C)s1
37.9 µM: TGI (NCI-H226 lung)
inactive: GI50 (ACHN renal) 20 µM | GI50 (CCRF-CEM leukemia) 12.7 µM | GI50 (M14 melanoma) 18.9 µM | GI50 (NCI-H226 lung) 18.7 µM | GI50 (OVCAR-4 ovarian) 36.2 µM | GI50 (OVCAR-8 ovarian) 32.6 µM | GI50 (SN12C renal) 14.9 µM
28.9 µM: TGI (SN12C renal)
39.5 µM: TGI (ACHN renal)
32.9 µM: TGI (M14 melanoma)
63.4 µM: TGI (OVCAR-8 ovarian)
> 100 µM: TGI (OVCAR-4 ovarian)
37.1 µM: TGI (CCRF-CEM leukemia)

O=[N+]([O-])c1ccc(C2SCc3nc4ccccc4n32)cc1 (centres undefined)
> 100 µM: TGI (ACHN renal) | TGI (CCRF-CEM leukemia) | TGI (COLO 205 colon) | TGI (NCI-H226 lung) | TGI (OVCAR-4 ovarian) | TGI (OVCAR-8 ovarian) | TGI (SN12C renal)

Cc1ccc(C)c(NC(=O)C(=O)C2C(=O)N(c3ccccc3)N=C2N)c1 (centres undefined)
> 100 µM: TGI (ACHN renal) | TGI (CCRF-CEM leukemia) | TGI (HCC-2998 colon) | TGI (M14 melanoma) | TGI (NCI-H226 lung) | TGI (OVCAR-4 ovarian) | TGI (OVCAR-8 ovarian) | TGI (SN12C renal)

O=C1NC2C3CC(OCc4ccccc4)(OCc4ccccc4)C2OC3O1 (centres undefined)
> 50 µM: TGI (CCRF-CEM leukemia) | TGI (COLO 205 colon) | TGI (HCC-2998 colon) | TGI (M14 melanoma) | TGI (NCI-H226 lung) | TGI (SN12C renal)

O=C(O)/C(Cl)=C(Cl)/C=N/NC(=O)c1cc2ccccc2cc1O
72 µM: TGI (OVCAR-4 ovarian)
87.2 µM: TGI (NCI-H226 lung)
51.7 µM: TGI (CCRF-CEM leukemia)
56 µM: TGI (M14 melanoma)
> 100 µM: TGI (ACHN renal) | TGI (COLO 205 colon) | TGI (OVCAR-8 ovarian) | TGI (SN12C renal)

Cc1cc(Cl)ccc1N=C1NC(=O)C(CC(=O)Nc2cccc(C)c2C)S1 (centres undefined)
82.3 µM: TGI (SN12C renal)
46.2 µM: TGI (COLO 205 colon)
69.2 µM: TGI (OVCAR-4 ovarian)
75.9 µM: TGI (OVCAR-8 ovarian)
73.6 µM: TGI (ACHN renal)
65.1 µM: TGI (HCC-2998 colon)
50.9 µM: TGI (M14 melanoma)
> 100 µM: TGI (CCRF-CEM leukemia)

CCOC(=O)/C(C#N)=C\Sc1ccccc1
> 100 µM: TGI (CCRF-CEM leukemia) | TGI (OVCAR-4 ovarian)
47.1 µM: TGI (ACHN renal)
43 µM: TGI (NCI-H226 lung)
38.4 µM: TGI (COLO 205 colon)
31.7 µM: TGI (SN12C renal)
35.6 µM: TGI (M14 melanoma)
27.3 µM: TGI (OVCAR-8 ovarian)
